“And” between values parts separate entries of the source, which are not always exact repeats. Identical values can stand only once.
Key:
[1] = system: Ercc1−/Δ mice; test: Chronic treatment of Ercc1−/Δ mice (health span); format: in vivo, mouse; details: preliminary experiments
Text: Thus, these novel NBD mimetics could be used not only for treatment of inflammatory and degenerative diseases but also for aging.

[2] = molecular target: T1, IKKβ/NEMO interaction (Mus musculus, UniProt O88522); test: Co-immunoprecipitation of endogenous IKKβ and NEMO in Raw 264.7 cells; format: cell-based; details: 100 μM mimetics, 8K-NBD 400 μM, 30 min
T1 construct: Co-immunoprecipitation of endogenous IKKβ and NEMO; endogenous in cells; host or cells: Raw 264.7
T1 sequence (O88522 whole entry): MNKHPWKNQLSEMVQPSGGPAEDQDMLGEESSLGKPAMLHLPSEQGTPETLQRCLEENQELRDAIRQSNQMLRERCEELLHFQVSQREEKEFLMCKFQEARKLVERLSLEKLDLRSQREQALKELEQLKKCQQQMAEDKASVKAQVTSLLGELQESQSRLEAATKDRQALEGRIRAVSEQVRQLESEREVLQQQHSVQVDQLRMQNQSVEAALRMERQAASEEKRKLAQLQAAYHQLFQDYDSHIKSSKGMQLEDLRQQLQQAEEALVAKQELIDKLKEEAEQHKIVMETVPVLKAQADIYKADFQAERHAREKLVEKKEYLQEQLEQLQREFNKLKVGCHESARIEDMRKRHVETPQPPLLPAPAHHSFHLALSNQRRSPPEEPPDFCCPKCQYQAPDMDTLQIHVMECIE
Method: To determine whether the novel NBD mimetics target the NEMO-IKKβ interaction in vivo, co-immunoprecipitations were performed using extracts from Raw 264.7 macrophages (Fig 5A). […] No interaction between NEMO and TNF receptor-associated factor 2 (TRAF2) or IκBα was observed under these conditions. […] The levels of phosphorylated IKK complex, IκBα, and p65 in response to TNF-α and LPS were all reduced by SR12343 (Fig 5D & 5E). […] However, there were no changes in the levels of phospho-c-Jun N-terminal kinase (p-JNK), p-p38MAPK, total JNK, and p38MAPK by treatment with SR12343 (150 μM) in response to TNF-α or LPS stimulation (Fig 5G & 5H). […]
(A) Co-IP analysis detecting the IKKβ/NEMO interaction. […] NEMO-binding products were then analyzed for levels of IKKβ, IKKα, TRAF2, and IκBα (negative control), and levels of NEMO were used as a loading control (left panel). […] The levels of IKKβ-FLAG binding to GST-NEMO were determined by western blot analysis with GST-NEMO used as a loading control. […] Cell lysates were analyzed for activity of the IKK/NF-κB signaling pathway including activation of IKK complex, IκBα, and p65. […] Cell lysates were harvested and analyzed for activation of noncanonical NF-κB signaling, the processing of p100 to p52. […]

[3] = system: HEK293 cells; details: Fig 2D; 100 μM, 24 h
Method: (A) HEK293 cells stably expressing NF-κB luciferase reporter were pretreated with indicated small molecules at 100 μM for 30 min, followed by stimulation with TNF-α (10 ng/ml) for 3 h. Luciferase activity was normalized to untreated stimulated control cells. […] (B) The dose-dependent response of ZINC12909780 was tested by NF-κB luciferase assay in HEK293 cells. Three independent experiments were performed, and data shown represent mean +/− SD. […] (D) HEK293 cells were cultured in the presence of 100 μM of indicated derivatives for 24 h, and cell survival was determined by MTT assay. Cell viability was calculated by normalizing to untreated cells. (E) Dose-dependent inhibitory effects were determined for ZINC5 at 0, 25, 50, and 100 μM by using NF-κB luciferase assay. (F) HEK293 were cultivated in the presence of ZINC5 at listed concentrations for 24 h, and cell survival was assessed by MTT assay. Data represent the mean +/− SD from 4–5 independent experiments. *P < 0.05; **P < 0.01; ***P < 0.001. Underlying data can be found in S1 Data. HEK293, human embryonic kidney 293 cells; MTT, 3-(4,5-dimethylthiazol-2-yl)-2,5-dephenyltetrazolium bromide colormetric assay for assessing cell metabolic activity; NF-κB, nuclear factor κB; TNF-α; tumor necrosis factor α; SD, standard deviation.
HEK293 cells were grown in a 96-well plate at 3 × 10^4 cells/well in triplicate and treated with DMSO or listed small molecules at indicated concentrations for 24 h. Cell survival was determined by adding 20 μl of 5 mg/ml MTT (thiazolyl blue tetrazolium bromide) to each well, followed by incubation in 37 °C for 3 h. Media were removed, and purple formazan was dissolved in 100 uL of DMSO. Absorbance was measured at 590 nm on a microplate reader (PerkinElmer, Waltham, MA). Cell viability was calculated by normalizing values to untreated controls.

Structure (SMILES)	Health span [1]	IKKβ-NEMO interaction (Co-IP) [2]	Cell viability normalized to untreated cells (MTT) [3]
O=C(CNc1ccc(Cl)cn1)NCCc1cccc(Br)c1 [SR12343]	extended health span	most effective	–
O=C(COC(=O)Cc1ccccc1F)Nc1ccc(Cl)cn1 [ZINC5]	–	–	95 and 80 and 84 and 81
